Data taken from patent US6355799B1, “Substituted benzene compounds, process for their preparation, and herbicidal and defoliant compositions containing them” (ISK Americas Incorporated, priority 1997, dated 2002).

Key:
Assay type in all cases: in vivo
[1] = test system: field corn (Zea mays L., var. Dekalb 535, CORN); assay: Pre-emerge test, crop safety; conditions: crop damage rating 0-100, 14 days after application
Outline: (§1)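 Fourteen days after spraying, crop and weed injury was graded visually from 0, no effect, to 100, every plant dead. Test substances were dissolved in acetone and applied at 15–1000 g ai/ha with a flat-fan nozzle. Application was either pre-emergence, one day after sowing, or post-emergence at the 2–3 leaf stage.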

[2] = test system: upland rice (Oryza sp., var. Tebonnet, RICE); assay: Pre-emerge test, crop safety; conditions: crop damage rating 0-100, 14 days after application
Outline: as §1

[3] = test system: sicklepod (Cassia obtusifolia, CASOB); assay: Post-emerge test, greenhouse herbicide activity screening; conditions: post-emerge, 14 days after application, rating scale 0-100
Outline: (§2)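 Sandy loam pots; pre-emerge: sown 1 d pre-spray, surface-watered after, then bottom-watered. Post-emerge: sown 8–21 d before, 2–3 leaf stage, + 0.25% v/v NIS, bottom-watered. Acetone, 187 l/ha track spray, 15–1000 g ai/ha. 0–100 injury score, day 14.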

[4] = test system: velvetleaf (Abutilon theophrasti, ABUTH); assay: as above; conditions: post-emerge, 14 days after application, rating scale 0-100
Outline: as §2

[5] = test system: johnsongrass (Sorghum halepense, SORHA); assay: as above; conditions: post-emerge, 14 days after application, rating scale 0-100
Outline: as §2

[6] = test system: ivyleaf morningglory (Ipomoea hederacea, IPOHE); assay: as above; conditions: post-emerge, 14 days after application, rating scale 0-100
Outline: as §2

[7] = test system: barnyardgrass (Echinochloa crus-galli, ECHCG); assay: as above; conditions: post-emerge, 14 days after application, rating scale 0-100
Outline: as §2

[8] = test system: redroot pigweed (Amaranthus retroflexus, AMARE); assay: as above; conditions: post-emerge, 14 days after application
Outline: as §2

[9] = test system: large crabgrass (Digitaria sanguinalis, DIGSA); assay: as above; conditions: post-emerge, 14 days after application, rating scale 0-100
Outline: as §2

[10] = test system: lambsquarters (Chenopodium album, CHEAL); assay: as above; conditions: post-emerge, 14 days after application, rating scale 0-100
Outline: as §2

[11] = test system: green foxtail (Setaria viridis, SETVI); assay: as above; conditions: post-emerge, 14 days after application, rating scale 0-100
Outline: as §2

[12] = test system: sicklepod (Cassia obtusifolia, CASOB); assay: Pre-emerge test, greenhouse herbicide activity screening; conditions: phytotoxicity rating 0-100, 14 days after application
Outline: as §1

[13] = test system: velvetleaf (Abutilon theophrasti, ABUTH); assay: as above; conditions: phytotoxicity rating 0-100, 14 days after application
Outline: as §1

[14] = test system: johnsongrass (Sorghum halepense, SORHA); assay: as above; conditions: phytotoxicity rating 0-100, 14 days after application
Outline: as §1

[15] = test system: ivyleaf morningglory (Ipomoea hederacea, IPOHE); assay: as above; conditions: phytotoxicity rating 0-100, 14 days after application
Outline: as §1

[16] = test system: barnyardgrass (Echinochloa crus-galli, ECHCG); assay: as above; conditions: phytotoxicity rating 0-100, 14 days after application
Outline: as §1

[17] = test system: large crabgrass (Digitaria sanguinalis, DIGSA); assay: as above; conditions: phytotoxicity rating 0-100, 14 days after application
Outline: as §1

[18] = test system: lambsquarters (Chenopodium album, CHEAL); assay: as above; conditions: phytotoxicity rating 0-100, 14 days after application
Outline: as §1

[19] = test system: green foxtail (Setaria viridis, SETVI); assay: as above; conditions: phytotoxicity rating 0-100, 14 days after application
Outline: as §1

[20] = test system: redroot pigweed (Amaranthus retroflexus, AMARE); assay: as above; conditions: phytotoxicity rating 0-100, 14 days after application
Outline: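 Plants grown in 10 cm pots of sandy loam mix received acetone-dissolved compounds through a moving flat-fan nozzle. Doses ranged from 15 to 1000 g ai/ha. Pre-emerge pots were seeded one day earlier, post-emerge pots 8–21 days earlier. Fourteen days on, each pot was graded 0–100 for damage.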

[21] = test system: field corn (Zea mays L., var. Dekalb 535, CORN); assay: Post-emerge test, crop safety; conditions: post-emerge, 14 days after application, rating scale 0-100
Outline: as §1

[22] = test system: upland rice (Oryza sp., var. Tebonnet, RICE); assay: Post-emerge test, crop safety; conditions: post-emerge, 14 days after application, rating scale 0-100
Outline: as §1

[23] = 63 g ai/ha, rating scale 0-100 (0 no damage, 100 complete death)
[24] = 250 g ai/ha, rating scale 0-100

Compound: Nn1c(C(F)(F)F)cc(=O)n(-c2c(F)cc(Cl)c(O)c2NC(=O)c2ccc3ccccc3c2)c1=O [Compound 2-192]
- Pre-emerge Herbicidal Activity CORN ([1]; 250 g ai/ha): 0
- Pre-emerge Herbicidal Activity RICE ([2]; 250 g ai/ha): 0
- phytotoxicity rating CASOB ([3]; 63 g ai/ha): 40
- phytotoxicity rating CASOB ([3]; 250 g ai/ha): 60
- phytotoxicity rating ABUTH ([4]; 63 g ai/ha): 85
- phytotoxicity rating ABUTH ([4]; 250 g ai/ha): 85
- phytotoxicity rating SORHA ([5]; 63 g ai/ha): 0
- phytotoxicity rating SORHA ([5]; 250 g ai/ha): 0
- phytotoxicity rating IPOHE ([6]; 63 g ai/ha): 50
- phytotoxicity rating IPOHE ([6]; 250 g ai/ha): 70
- phytotoxicity rating ECHCG ([7]; 63 g ai/ha): 0
- phytotoxicity rating ECHCG ([7]; 250 g ai/ha): 0
- phytotoxicity rating AMARE [8, 23]: 70
- phytotoxicity rating AMARE [8, 24]: 70
- phytotoxicity rating DIGSA ([9]; 63 g ai/ha): 0
- phytotoxicity rating DIGSA ([9]; 250 g ai/ha): 0
- phytotoxicity rating CHEAL ([10]; 63 g ai/ha): 60
- phytotoxicity rating CHEAL ([10]; 250 g ai/ha): 50
- phytotoxicity rating SETVI ([11]; 63 g ai/ha): 0
- phytotoxicity rating SETVI ([11]; 250 g ai/ha): 0
- Pre-emerge Herbicidal Activity CASOB ([12]; 250 g ai/ha): 0
- Pre-emerge Herbicidal Activity ABUTH ([13]; 250 g ai/ha): 85
- Pre-emerge Herbicidal Activity SORHA ([14]; 250 g ai/ha): 0
- Pre-emerge Herbicidal Activity IPOHE ([15]; 250 g ai/ha): 30
- Pre-emerge Herbicidal Activity ECHCG ([16]; 250 g ai/ha): 0
- Pre-emerge Herbicidal Activity DIGSA ([17]; 250 g ai/ha): 0
- Pre-emerge Herbicidal Activity CHEAL ([18]; 250 g ai/ha): 80
- Pre-emerge Herbicidal Activity SETVI ([19]; 250 g ai/ha): 0
- Pre-emerge Herbicidal Activity AMARE ([20]; 250 g ai/ha): 90
- phytotoxicity rating CORN (crop damage) ([21]; 63 g ai/ha): 5
- phytotoxicity rating CORN (crop damage) ([21]; 250 g ai/ha): 15
- phytotoxicity rating RICE (crop damage) ([22]; 63 g ai/ha): 0
- phytotoxicity rating RICE (crop damage) ([22]; 250 g ai/ha): 20

Compound: COc1c(Cl)cc(F)c(-n2c(=O)cc(C(F)(F)F)n(C)c2=O)c1NC(=O)Nc1ccccc1 [Compound 3-4]
- Pre-emerge Herbicidal Activity CORN ([1]; 63 g ai/ha): 0
- Pre-emerge Herbicidal Activity CORN ([1]; 250 g ai/ha): 0
- Pre-emerge Herbicidal Activity RICE ([2]; 63 g ai/ha): 0
- Pre-emerge Herbicidal Activity RICE ([2]; 250 g ai/ha): 15
- phytotoxicity rating CASOB ([3]; 63 g ai/ha): 0
- phytotoxicity rating CASOB ([3]; 250 g ai/ha): 0
- phytotoxicity rating ABUTH ([4]; 63 g ai/ha): 40
- phytotoxicity rating ABUTH ([4]; 250 g ai/ha): 50
- phytotoxicity rating SORHA ([5]; 63 g ai/ha): 0
- phytotoxicity rating SORHA ([5]; 250 g ai/ha): 0
- phytotoxicity rating IPOHE ([6]; 63 g ai/ha): 0
- phytotoxicity rating IPOHE ([6]; 250 g ai/ha): 0
- phytotoxicity rating ECHCG ([7]; 63 g ai/ha): 0
- phytotoxicity rating ECHCG ([7]; 250 g ai/ha): 0
- phytotoxicity rating AMARE [8, 23]: 0
- phytotoxicity rating AMARE [8, 24]: 0
- phytotoxicity rating DIGSA ([9]; 63 g ai/ha): 0
- phytotoxicity rating DIGSA ([9]; 250 g ai/ha): 0
- phytotoxicity rating CHEAL ([10]; 63 g ai/ha): 0
- phytotoxicity rating CHEAL ([10]; 250 g ai/ha): 0
- phytotoxicity rating SETVI ([11]; 63 g ai/ha): 0
- phytotoxicity rating SETVI ([11]; 250 g ai/ha): 0
- Pre-emerge Herbicidal Activity CASOB ([12]; 63 g ai/ha): 0
- Pre-emerge Herbicidal Activity CASOB ([12]; 250 g ai/ha): 60
- Pre-emerge Herbicidal Activity ABUTH ([13]; 63 g ai/ha): 0
- Pre-emerge Herbicidal Activity ABUTH ([13]; 250 g ai/ha): 100
- Pre-emerge Herbicidal Activity SORHA ([14]; 63 g ai/ha): 0
- Pre-emerge Herbicidal Activity SORHA ([14]; 250 g ai/ha): 10
- Pre-emerge Herbicidal Activity IPOHE ([15]; 63 g ai/ha): 0
- Pre-emerge Herbicidal Activity IPOHE ([15]; 250 g ai/ha): 50
- Pre-emerge Herbicidal Activity ECHCG ([16]; 63 g ai/ha): 0
- Pre-emerge Herbicidal Activity ECHCG ([16]; 250 g ai/ha): 0
- Pre-emerge Herbicidal Activity DIGSA ([17]; 63 g ai/ha): 0
- Pre-emerge Herbicidal Activity DIGSA ([17]; 250 g ai/ha): 10
- Pre-emerge Herbicidal Activity CHEAL ([18]; 63 g ai/ha): 0
- Pre-emerge Herbicidal Activity CHEAL ([18]; 250 g ai/ha): 100
- Pre-emerge Herbicidal Activity SETVI ([19]; 63 g ai/ha): 20
- Pre-emerge Herbicidal Activity SETVI ([19]; 250 g ai/ha): 60
- Pre-emerge Herbicidal Activity AMARE ([20]; 63 g ai/ha): 0
- Pre-emerge Herbicidal Activity AMARE ([20]; 250 g ai/ha): 100
- phytotoxicity rating CORN (crop damage) ([21]; 63 g ai/ha): 0
- phytotoxicity rating CORN (crop damage) ([21]; 250 g ai/ha): 0
- phytotoxicity rating RICE (crop damage) ([22]; 63 g ai/ha): 0
- phytotoxicity rating RICE (crop damage) ([22]; 250 g ai/ha): 10
